Measurements taken from PubChem BioAssay (NCI).
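Briefly, cells in 96-well plates were exposed to five compound concentrations for 48 h, and endpoints were estimated by linear interpolation. GI50 = concentration required for 50% inhibition of growth. The concentration for full growth arrest is given as TGI.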

Tests used:
Assay in all cases: NCI tumour cell line growth inhibition, 48 h
786-0 renal = test system: 786-0 renal
HL-60(TB) leukemia = test system: HL-60(TB) leukemia
DU-145 prostate = test system: DU-145 prostate
SF-268 CNS = test system: SF-268 CNS
KM12 colon = test system: KM12 colon
SW-620 colon = test system: SW-620 colon
RXF 393 renal = test system: RXF 393 renal
OVCAR-5 ovarian = test system: OVCAR-5 ovarian
UACC-62 melanoma = test system: UACC-62 melanoma
IGROV1 ovarian = test system: IGROV1 ovarian
U251 CNS = test system: U251 CNS
UACC-257 melanoma = test system: UACC-257 melanoma
MALME-3M melanoma = test system: MALME-3M melanoma
OVCAR-4 ovarian = test system: OVCAR-4 ovarian
NCI-H226 lung = test system: NCI-H226 lung
HCC-2998 colon = test system: HCC-2998 colon
MCF7 breast = test system: MCF7 breast
SK-MEL-5 melanoma = test system: SK-MEL-5 melanoma
SK-OV-3 ovarian = test system: SK-OV-3 ovarian
BT-549 breast = test system: BT-549 breast
CAKI-1 renal = test system: CAKI-1 renal
COLO 205 colon = test system: COLO 205 colon
RPMI-8226 leukemia = test system: RPMI-8226 leukemia
SNB-75 CNS = test system: SNB-75 CNS
HT29 colon = test system: HT29 colon
MOLT-4 leukemia = test system: MOLT-4 leukemia
HS 578T breast = test system: HS 578T breast
MDA-MB-231 breast = test system: MDA-MB-231 breast
K-562 leukemia = test system: K-562 leukemia
LOX IMVI melanoma = test system: LOX IMVI melanoma
NCI-H23 lung = test system: NCI-H23 lung
NCI-H460 lung = test system: NCI-H460 lung
NCI/ADR-RES ovarian = test system: NCI/ADR-RES ovarian
SNB-19 CNS = test system: SNB-19 CNS
HOP-62 NSCLC = test system: HOP-62 NSCLC
OVCAR-8 ovarian = test system: OVCAR-8 ovarian
HCT-15 colon = test system: HCT-15 colon
SN12C renal = test system: SN12C renal
ACHN renal = test system: ACHN renal
A549 NSCLC = test system: A549 NSCLC
EKVX NSCLC = test system: EKVX NSCLC
SR leukemia = test system: SR leukemia
SF-539 CNS = test system: SF-539 CNS
SK-MEL-2 melanoma = test system: SK-MEL-2 melanoma
SF-295 CNS = test system: SF-295 CNS
TK-10 renal = test system: TK-10 renal
HOP-92 NSCLC = test system: HOP-92 NSCLC
A498 renal = test system: A498 renal
PC-3 prostate = test system: PC-3 prostate
NCI-H522 lung = test system: NCI-H522 lung
HCT-116 colon = test system: HCT-116 colon
M14 melanoma = test system: M14 melanoma
MDA-MB-435 = test system: MDA-MB-435
OVCAR-3 ovarian = test system: OVCAR-3 ovarian
CCRF-CEM leukemia = test system: CCRF-CEM leukemia
T-47D breast = test system: T-47D breast
SK-MEL-28 melanoma = test system: SK-MEL-28 melanoma
UO-31 renal = test system: UO-31 renal

In the case of `O=[N+]([O-])C1C(c2ccccc2)C12c1ccccc1-c1ccccc12` (stereo unspecified), the GI50 (786-0 renal) is reported as 590 nM, the TGI (786-0 renal) is reported as 14.2 µM and the GI50 (HL-60(TB) leukemia) is reported as 2120 nM. The TGI (HL-60(TB) leukemia) was > 100 µM, the GI50 (DU-145 prostate) was 733 nM and the TGI (DU-145 prostate) was 3.66 µM. For the same molecule, the GI50 (SF-268 CNS) was 2300 nM, the TGI (SF-268 CNS) was 28 µM and the GI50 (KM12 colon) was 931 nM. It also gave a TGI (KM12 colon) of 16.6 µM, a GI50 (SW-620 colon) of 424 nM and a TGI (SW-620 colon) of 8.2 µM. For the same molecule, the GI50 (RXF 393 renal) was 845 nM, the TGI (RXF 393 renal) was 6.24 µM and the GI50 (OVCAR-5 ovarian) was 4.65 µM. The TGI (OVCAR-5 ovarian) was > 51.8 µM, the GI50 (UACC-62 melanoma) was 544 nM and the TGI (UACC-62 melanoma) was 15.6 µM. It also gave a GI50 (IGROV1 ovarian) of 3.41 µM, a TGI (IGROV1 ovarian) of 30.1 µM and a GI50 (U251 CNS) of 1030 nM. The TGI (U251 CNS) was 14 µM, the GI50 (UACC-257 melanoma) was 6.38 µM and the TGI (UACC-257 melanoma) was 51.2 µM. The GI50 (MALME-3M melanoma) was 15 µM, the TGI (MALME-3M melanoma) was 37.8 µM and the GI50 (OVCAR-4 ovarian) was 3.56 µM. The TGI (OVCAR-4 ovarian) was > 100 µM, the GI50 (NCI-H226 lung) was 2050 nM and the TGI (NCI-H226 lung) was 14.5 µM. For the same molecule, the GI50 (HCC-2998 colon) was 1490 nM, the TGI (HCC-2998 colon) was 6.43 µM and the GI50 (MCF7 breast) was 351 nM. For the same molecule, the TGI (MCF7 breast) was 30.8 µM, the GI50 (SK-MEL-5 melanoma) was 515 nM and the TGI (SK-MEL-5 melanoma) was 9.48 µM. For the same molecule, the GI50 (SK-OV-3 ovarian) was 1840 nM, the TGI (SK-OV-3 ovarian) was > 41.1 µM and the GI50 (BT-549 breast) was 543 nM. For the same molecule, the TGI (BT-549 breast) was 7.32 µM, the GI50 (CAKI-1 renal) was 1030 nM and the TGI (CAKI-1 renal) was > 65.7 µM. It also gave a GI50 (COLO 205 colon) of 1850 nM, a TGI (COLO 205 colon) of 10.9 µM and a GI50 (RPMI-8226 leukemia) of 322 nM. The TGI (RPMI-8226 leukemia) was 1510 nM, the GI50 (SNB-75 CNS) was 612 nM and the TGI (SNB-75 CNS) was 14 µM. The GI50 (HT29 colon) was 349 nM, the TGI (HT29 colon) was 15.5 µM and the GI50 (MOLT-4 leukemia) was 746 nM. The TGI (MOLT-4 leukemia) was > 26.3 µM, the GI50 (HS 578T breast) was 2280 nM and the TGI (HS 578T breast) was > 100 µM. It also gave a GI50 (MDA-MB-231 breast) of 633 nM, a TGI (MDA-MB-231 breast) of 13.5 µM and a GI50 (K-562 leukemia) of 452 nM. The TGI (K-562 leukemia) was > 65.9 µM, the GI50 (LOX IMVI melanoma) was 416 nM and the TGI (LOX IMVI melanoma) was 2470 nM. The GI50 (NCI-H23 lung) was 2060 nM, the TGI (NCI-H23 lung) was > 47.2 µM and the GI50 (NCI-H460 lung) was 589 nM. For the same molecule, the TGI (NCI-H460 lung) was 10.7 µM, the GI50 (NCI/ADR-RES ovarian) was 657 nM and the TGI (NCI/ADR-RES ovarian) was > 23.7 µM. The GI50 (SNB-19 CNS) was 12.4 µM, the TGI (SNB-19 CNS) was > 100 µM and the GI50 (HOP-62 NSCLC) was 573 nM. For the same molecule, the TGI (HOP-62 NSCLC) was 17.6 µM, the GI50 (OVCAR-8 ovarian) was 645 nM and the TGI (OVCAR-8 ovarian) was > 24.3 µM. For the same molecule, the GI50 (HCT-15 colon) was 546 nM, the TGI (HCT-15 colon) was 30.4 µM and the GI50 (SN12C renal) was 1670 nM. For the same molecule, the TGI (SN12C renal) was 26 µM, the GI50 (ACHN renal) was 1470 nM and the TGI (ACHN renal) was 19.1 µM. The GI50 (A549 NSCLC) was 1910 nM, the TGI (A549 NSCLC) was > 100 µM and the GI50 (EKVX NSCLC) was 3.22 µM. For the same molecule, the TGI (EKVX NSCLC) was > 100 µM, the GI50 (SR leukemia) was 348 nM and the TGI (SR leukemia) was 4.22 µM. For the same molecule, the GI50 (SF-539 CNS) was 1310 nM, the TGI (SF-539 CNS) was 9 µM and the GI50 (SK-MEL-2 melanoma) was 4.4 µM. For the same molecule, the TGI (SK-MEL-2 melanoma) was 31.4 µM, the GI50 (SF-295 CNS) was 598 nM and the TGI (SF-295 CNS) was 43.9 µM. For the same molecule, the GI50 (TK-10 renal) was 2000 nM, the TGI (TK-10 renal) was 16.6 µM and the GI50 (HOP-92 NSCLC) was 250 nM. The TGI (HOP-92 NSCLC) was 2050 nM, the GI50 (A498 renal) was 316 nM and the TGI (A498 renal) was 3.83 µM. The GI50 (PC-3 prostate) was 947 nM, the TGI (PC-3 prostate) was > 100 µM and the GI50 (NCI-H522 lung) was 680 nM. The TGI (NCI-H522 lung) was 13 µM, the GI50 (HCT-116 colon) was 371 nM and the TGI (HCT-116 colon) was 11.6 µM. It also gave a GI50 (M14 melanoma) of 789 nM, a TGI (M14 melanoma) of 23.7 µM and a GI50 (MDA-MB-435) of 188 nM. It also gave a TGI (MDA-MB-435) of 454 nM, a GI50 (OVCAR-3 ovarian) of 783 nM and a TGI (OVCAR-3 ovarian) of 3.59 µM. The GI50 (CCRF-CEM leukemia) was 318 nM, the TGI (CCRF-CEM leukemia) was 4.22 µM and the GI50 (T-47D breast) was 2730 nM. The TGI (T-47D breast) was 23.2 µM, the GI50 (SK-MEL-28 melanoma) was 4.18 µM and the TGI (SK-MEL-28 melanoma) was 22.5 µM. The GI50 (UO-31 renal) was 2060 nM and the TGI (UO-31 renal) was 18.8 µM.
